Results from patent publication US6380463B1, “Inducible herbicide resistance” (priority 1995, dated 2002).

What was measured:
[1] = system: alcA/alcR system; assay: non-solvent chemical treatments, induction of the alcA/alcR switch; type: in vivo; conditions: non-solvent chemical treatment
[2] = system: Brassica napus var Westar; assay: kill curve on glyphosate, oil seed rape growing tip plus two leaves in MS medium; type: in vivo
Procedure: (§1) Kill Curves for Tobacco var Samsun and Brassica napus var Westar on glyphosate
(§2) Both species were tested on a range of glyphosate concentrations by inserting, in the case of tobacco a 5-6 mm stem segment carrying a leaf node and in the case of oil seed rape the growing tip plus two leaves into MS medium containing glyphosate at […] glyphosate isopropylamine salt.

[3] = system: 5-enol-pyruvylshikimate-3-phosphate (EPSP) synthase; assay: EPSPS assay in plant extracts (14C-labelled phosphoenol pyruvate, HPLC); type: biochemical
Procedure: Assays for 5-enol-pyruvylshikimate-3-phosphate (EPSP) synthase activity in plant extracts were carried out (1) by following the disappearance of the phosphoenol pyruvate substrate (as described by Rubin, J. L., Gaines, C. G and Jensen, R. A., in Plant Physiol (1984 75, 839-845) or (2) by conducting the assay in the reverse direction and coupling to pyruvate kinase and lactate dehydrogenase (as described by Mousdale D. M. and Coggins J. R. in Planta (1984) 160, 78-83) or (3) by using 14(-labelled phosphoenol pyruvate as substrate and detecting the formation of radioactive EPSP by HPLC on an anion exchange column and detecting using a flow-through radioactivity detector as described by Della-Cioppa et al in Proc. Nat. Acad. Sci. (USA) (1986), 83, 6873-6877.

[4] = system: Tobacco var Samsun; assay: kill curve on glyphosate, tobacco stem segment in MS medium; type: in vivo
Procedure: as §1, §2

[5] = system: alcA/alcR system; assay: hydroponic seedling system (root drenching), induced reporter gene expression; type: in vivo; conditions: FIG. 2
Description: (§3) 3. We have tested the specificity of alcA/alcR system with a range of solvents used in agronomic practice.

[6] = system: alcA/alcR system; conditions: applied as a foliar spray, FIG. 3
Description: as §3
FIG. 3 illustrates the levels of induced reporter gene activity when the chemicals listed in Table 1 were applied as a foliar spray;

`O=C(O)c1ccccc1O` [salicylic acid] was tested, and the “induction of the alcA/alcR system” value [1] was “failed to induce”.
In the case of `CC1=CC(=O)CC(C)(C)C1(O)/C=C/C(C)=C\C(=O)O` (stereo not shown) [absisic acid], the “induction of the alcA/alcR system” value [1] is reported as “failed to induce”.
With `O=C(O)CNCP(=O)(O)O` [glyphosate, N-phosphonomethyl-glycine] the “growth scored after two weeks” value ([2]; 0.005 mM in MS medium) was “No stem growth, 1 new leaf, roots to 1 cm”, the “growth scored after two weeks” value ([2]; 0.011 mM in MS medium) was “No stem growth, no new leaves, roots ˜ 0.5 cm” and the “growth scored after two weeks” value ([2]; 0.0275 mM in MS medium) was “No stem growth, no new leaves, roots ˜ 2 mm”. For the same molecule, the “growth scored after two weeks” value ([2]; 0.055 mM in MS medium) was “No growth in any organ, ends of stem blackened”, the “inhibition of EPSP synthase activity” value [3] was “relatively resistant to inhibition” and the “growth scored after two weeks” value ([4]; 0.005 mM in MS medium) was “No growth”. The “growth scored after two weeks” value ([4]; 0.01 mM in MS medium) was “No growth”, the “growth scored after two weeks” value ([4]; 0.011 mM in MS medium) was “No growth” and the “growth scored after two weeks” value ([4]; 0.0275 mM in MS medium) was “No growth”. The “growth scored after two weeks” value ([4]; 0.055 mM in MS medium) was “No growth”.
For `C=C` [ethylene], the “induction of the alcA/alcR system” value [1] was “failed to induce”.
In the case of `CCO` [ethanol], the “levels of induced reporter gene expression” value [5] is reported as “high levels of induced reporter gene expression” and the “levels of induced reporter gene activity” value [6] is reported as “high levels of induced reporter gene activity”.
`CCC(C)O` (stereo not shown) [butan-2-ol] was tested, and the “levels of induced reporter gene expression” value [5] was “high levels of induced reporter gene expression”.
auxin was tested, and the “induction of the alcA/alcR system” value [1] was “failed to induce”.
With `O=C1CCCCC1` [cyclohexanone] the “levels of induced reporter gene expression” value [5] was “high levels of induced reporter gene expression”.
`C=C1C[C@]23C[C@@]1(O)CC[C@H]2[C@@]12C=C[C@H](O)[C@@](C)(C(=O)O1)[C@H]2[C@@H]3C(=O)O` [gibberelic acid] was tested, and the “induction of the alcA/alcR system” value [1] was “failed to induce”.
